Series [1] in a line: Visual check / description of nanoparticle samples for crystals, aggregates, stability. The class given is physicochemical. The settings on record: control: unconjugated paclitaxel 8 mg + VitES 10 mg + mPEG5-PCL7 in THF mixed against water. How it is done: (§1) A 300 mM sucrose solution is prepared, loaded into a 100 ml gas tight syringe, and fixed on a second syringe pump. […] At the mixer outlet, two samples are collected. The first sample is collected in a scintillation vial and analyzed for particle size by dynamic light scattering (DLS), and the second sample is collected in low temperature freezer vials, and freeze-dried. The freeze-drying cycle is the following: −40° C. overnight, −10° C. for a day, 4° C. for a day, and then room temperature for one day. […] The samples are checked visually for crystals/aggregates formation. […] A freeze-dried sample is dissolved in methanol to dissociate the nanoparticles, and the solution is tested for the presence of THF using CGC.

A short description of series [2]: Nanoparticle size by dynamic light scattering (DLS). The class given is physicochemical. The settings on record: control: unconjugated paclitaxel + VitES + mPEG5-PCL7. As for the experimental part:
as §1, with “CGC. Particle size may be determined by DLS. […] The sample collected in a scintillation vial from the mixer effluent is inserted into the DLS sample cell containing decalin scintillation fluid (maintained at 25° C. using a temperature bath), and left to equilibrate to the cell temperature. The run duration is 60 seconds, replicated three times. The particle size expressed as the hydrodynamic diameter is obtained using an ALV 5000 correlator and a second order cumulant fit.” for “CGC.”

For `CC(=O)O[C@H]1C(=O)[C@@]2(C)[C@H]([C@H](OC(=O)c3ccccc3)[C@]3(O)C[C@H](OC(=O)[C@H](O)[C@@H](NC(=O)c4ccccc4)c4ccccc4)C(C)=C1C3(C)C)[C@]1(OC(C)=O)CO[C@@H]1C[C@@H]2O` [paclitaxel], in series [1], the “time after mixing at which crystals were visible” value is recorded as “about 20 minutes”. For the same compound, in series [2], the “particles detected by Dynamic Light Scattering” value is given as “no particles were detected”.

(Values after US10905775B2, “Particulate constructs for release of active agents” (CELATOR PHARMACEUTICALS, INC., priority 2004, dated 2021).)
